Source: patent publication US6358885B1, “Substituted phenylheterocyclic herbicides” (Mississippi State University, priority 1992, dated 2002)

Tests used:
Experiment in all cases: Test B preemergence/postemergence greenhouse plant response rating 0 to 10
wild oat = assay type: in vivo, Avena fatua; conditions: for Plant response rating, Wild oat: 0 to 10 scale
In short: (§1)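 Postemergence treatment of plants two to eighteen cm tall ran alongside preemergence treatment of planted seed, each using compound in a non-phytotoxic solvent.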

cotton = assay type: in vivo, Gossypium hirsutum; conditions: for Plant response rating, Cotton: 0 to 10 scale
In short: as §1

cheatgrass = assay type: in vivo, Bromus secalinus; conditions: for Plant response rating, Cheatgrass: 0 to 10 scale
In short: as §1

soybean = assay type: in vivo, Glycine max; conditions: for Plant response rating, Soybean: 0 to 10 scale
In short: as §1

giant foxtail = assay type: in vivo, Setaria faberii; conditions: for Plant response rating, Giant foxtail: 0 to 10 scale
In short: as §1

sorghum = assay type: in vivo, Sorghum bicolor; conditions: for Plant response rating, Sorghum: 0 to 10 scale
In short: as §1

wild buckwheat = assay type: in vivo, Polygonum convolvulus; conditions: for Plant response rating, Wild buckwheat: 0 to 10 scale
In short: as §1

crabgrass = assay type: in vivo, Digitaria spp.; conditions: for Plant response rating, Crabgrass: 0 to 10 scale
In short: as §1

blackgrass = assay type: in vivo, Alopecurus myosuroides; conditions: for Plant response rating, Blackgrass: 0 to 10 scale
In short: as §1

corn = assay type: in vivo, Zea mays; conditions: for Plant response rating, Corn: 0 to 10 scale
In short: as §1

sugar beet = assay type: in vivo, Beta vulgaris; conditions: for Plant response rating, Sugar beet: 0 to 10 scale
In short: as §1

morningglory = assay type: in vivo, Ipomoea hederacea; conditions: for Plant response rating, Morningglory: 0 to 10 scale
In short: as §1

barley = assay type: in vivo, Hordeum vulgare; conditions: for Plant response rating, Barley: 0 to 10 scale
In short: as §1

rice = assay type: in vivo, Oryza sativa; conditions: for Plant response rating, Rice: 0 to 10 scale
In short: as §1

velvetleaf = assay type: in vivo, Abutilon theophrasti; conditions: for Plant response rating, Velvetleaf: 0 to 10 scale
In short: as §1

cocklebur = assay type: in vivo, Xanthium pensylvanicum; conditions: for Plant response rating, Cocklebur: Rate 50 g/ha, 0 to 10 scale
In short: as §1

wheat = assay type: in vivo, Triticum aestivum; conditions: for Plant response rating, Wheat: 0 to 10 scale
In short: as §1

lambsquarters = assay type: in vivo, Chenopodium album; conditions: for Plant response rating, Lambsquarter: 0 to 10 scale
In short: as §1

barnyardgrass = assay type: in vivo, Echinochloa crus-galli; conditions: for Plant response rating, Barnyardgrass: 0 to 10 scale
In short: as §1

rape = assay type: in vivo, Brassica napus; conditions: for Plant response rating, Rape: 0 to 10 scale
In short: as §1

bedstraw = assay type: in vivo, Galium aparine; conditions: for Plant response rating, Bedstraw: 0 to 10 scale
In short: as §1

chickweed = assay type: in vivo, Stellaria media; conditions: for Plant response rating, Chickweed: 0 to 10 scale
In short: as §1

purple nutsedge = assay type: in vivo, Cyperus rotundus; conditions: for Plant response rating, Nutsedge: 0 to 10 scale
In short: as §1

FCCCOc1cc(-c2nn3c(c2Cl)CCCC3)c(F)cc1Cl [Compound 79]
Plant response rating, Wild oat (wild oat; POSTEMERGENCE, Rate 50 g/ha): 4 | Plant response rating, Wild oat (wild oat; PREEMERGENCE, Rate 50 g/ha): 3 | Plant response rating (0 to 10 scale), Wild oat (wild oat; PREEMERGENCE, Rate 200 g/ha): 6 | Plant response rating, Wild oat (wild oat; Rate 200 g/ha, POSTEMERGENCE): 5 | Plant response rating, Cotton (cotton; POSTEMERGENCE, Rate 50 g/ha): 10 | Plant response rating, Cotton (cotton; PREEMERGENCE, Rate 50 g/ha): 0 | Plant response rating (0 to 10 scale), Cotton (cotton; PREEMERGENCE, Rate 200 g/ha): 0 | Plant response rating, Cotton (cotton; Rate 200 g/ha, POSTEMERGENCE): 10 | Plant response rating, Cheatgrass (cheatgrass; POSTEMERGENCE, Rate 50 g/ha): 3 | Plant response rating, Cheatgrass (cheatgrass; PREEMERGENCE, Rate 50 g/ha): 2 | Plant response rating (0 to 10 scale), Cheatgrass (cheatgrass; PREEMERGENCE, Rate 200 g/ha): 4 | Plant response rating, Cheatgrass (cheatgrass; Rate 200 g/ha, POSTEMERGENCE): 4 | Plant response rating, Soybean (soybean; POSTEMERGENCE, Rate 50 g/ha): 7 | Plant response rating, Soybean (soybean; PREEMERGENCE, Rate 50 g/ha): 0 | Plant response rating (0 to 10 scale), Soybean (soybean; PREEMERGENCE, Rate 200 g/ha): 0 | Plant response rating, Soybean (soybean; Rate 200 g/ha, POSTEMERGENCE): 8 | Plant response rating, Giant foxtail (giant foxtail; POSTEMERGENCE, Rate 50 g/ha): 4 | Plant response rating, Giant foxtail (giant foxtail; PREEMERGENCE, Rate 50 g/ha): 3 | Plant response rating (0 to 10 scale), Giant foxtail (giant foxtail; PREEMERGENCE, Rate 200 g/ha): 9 | Plant response rating, Giant foxtail (giant foxtail; Rate 200 g/ha, POSTEMERGENCE): 6 | Plant response rating, Sorghum (sorghum; POSTEMERGENCE, Rate 50 g/ha): 6 | Plant response rating, Sorghum (sorghum; PREEMERGENCE, Rate 50 g/ha): 0 | Plant response rating (0 to 10 scale), Sorghum (sorghum; PREEMERGENCE, Rate 200 g/ha): 0 | Plant response rating, Sorghum (sorghum; Rate 200 g/ha, POSTEMERGENCE): 7 | Plant response rating, Wild buckwheat (wild buckwheat; POSTEMERGENCE, Rate 50 g/ha): 10 | Plant response rating, Wild buckwheat (wild buckwheat; PREEMERGENCE, Rate 50 g/ha): 0 | Plant response rating (0 to 10 scale), Wild buckwheat (wild buckwheat; PREEMERGENCE, Rate 200 g/ha): 9 | Plant response rating, Wild buckwheat (wild buckwheat; Rate 200 g/ha, POSTEMERGENCE): 10 | Plant response rating, Crabgrass (crabgrass; POSTEMERGENCE, Rate 50 g/ha): 3 | Plant response rating, Crabgrass (crabgrass; PREEMERGENCE, Rate 50 g/ha): 4 | Plant response rating (0 to 10 scale), Crabgrass (crabgrass; PREEMERGENCE, Rate 200 g/ha): 6 | Plant response rating, Crabgrass (crabgrass; Rate 200 g/ha, POSTEMERGENCE): 5 | Plant response rating, Blackgrass (blackgrass; POSTEMERGENCE, Rate 50 g/ha): 3 | Plant response rating, Blackgrass (blackgrass; PREEMERGENCE, Rate 50 g/ha): 1 | Plant response rating (0 to 10 scale), Blackgrass (blackgrass; PREEMERGENCE, Rate 200 g/ha): 5 | Plant response rating, Blackgrass (blackgrass; Rate 200 g/ha, POSTEMERGENCE): 5 | Plant response rating, Corn (corn; POSTEMERGENCE, Rate 50 g/ha): 3 | Plant response rating, Corn (corn; PREEMERGENCE, Rate 50 g/ha): 0 | Plant response rating (0 to 10 scale), Corn (corn; PREEMERGENCE, Rate 200 g/ha): 0 | Plant response rating, Corn (corn; Rate 200 g/ha, POSTEMERGENCE): 5 | Plant response rating, Sugar beet (sugar beet; POSTEMERGENCE, Rate 50 g/ha): 10 | Plant response rating, Sugar beet (sugar beet; PREEMERGENCE, Rate 50 g/ha): 9 | Plant response rating (0 to 10 scale), Sugar beet (sugar beet; PREEMERGENCE, Rate 200 g/ha): 10 | Plant response rating, Sugar beet (sugar beet; Rate 200 g/ha, POSTEMERGENCE): 10 | Plant response rating, Morningglory (morningglory; POSTEMERGENCE, Rate 50 g/ha): 10 | Plant response rating, Morningglory (morningglory; PREEMERGENCE, Rate 50 g/ha): 0 | Plant response rating (0 to 10 scale), Morningglory (morningglory; PREEMERGENCE, Rate 200 g/ha): 7 | Plant response rating, Morningglory (morningglory; Rate 200 g/ha, POSTEMERGENCE): 10 | Plant response rating, Barley (barley; POSTEMERGENCE, Rate 50 g/ha): 4 | Plant response rating, Barley (barley; PREEMERGENCE, Rate 50 g/ha): 0 | Plant response rating (0 to 10 scale), Barley (barley; PREEMERGENCE, Rate 200 g/ha): 2 | Plant response rating, Barley (barley; Rate 200 g/ha, POSTEMERGENCE): 4 | Plant response rating, Rice (rice; POSTEMERGENCE, Rate 50 g/ha): 5 | Plant response rating, Rice (rice; PREEMERGENCE, Rate 50 g/ha): 0 | Plant response rating (0 to 10 scale), Rice (rice; PREEMERGENCE, Rate 200 g/ha): 0 | Plant response rating, Rice (rice; Rate 200 g/ha, POSTEMERGENCE): 6 | Plant response rating, Velvetleaf (velvetleaf; POSTEMERGENCE, Rate 50 g/ha): 8 | Plant response rating, Velvetleaf (velvetleaf; PREEMERGENCE, Rate 50 g/ha): 5 | Plant response rating (0 to 10 scale), Velvetleaf (velvetleaf; PREEMERGENCE, Rate 200 g/ha): 10 | Plant response rating, Velvetleaf (velvetleaf; Rate 200 g/ha, POSTEMERGENCE): 10 | Plant response rating, Cocklebur (cocklebur; POSTEMERGENCE): 8 | Plant response rating, Cocklebur (cocklebur; PREEMERGENCE): 0 | Plant response rating (0 to 10 scale), Cocklebur (cocklebur; PREEMERGENCE, Rate 200 g/ha): 6 | Plant response rating, Wheat (wheat; POSTEMERGENCE, Rate 50 g/ha): 5 | Plant response rating, Wheat (wheat; PREEMERGENCE, Rate 50 g/ha): 0 | Plant response rating (0 to 10 scale), Wheat (wheat; PREEMERGENCE, Rate 200 g/ha): 2 | Plant response rating, Wheat (wheat; Rate 200 g/ha, POSTEMERGENCE): 6 | Plant response rating, Lambsquarter (lambsquarters; POSTEMERGENCE, Rate 50 g/ha): 9 | Plant response rating, Lambsquarter (lambsquarters; PREEMERGENCE, Rate 50 g/ha): 9 | Plant response rating (0 to 10 scale), Lambsquarter (lambsquarters; PREEMERGENCE, Rate 200 g/ha): 10 | Plant response rating, Lambsquarter (lambsquarters; Rate 200 g/ha, POSTEMERGENCE): 10 | Plant response rating, Barnyardgrass (barnyardgrass; POSTEMERGENCE, Rate 50 g/ha): 4 | Plant response rating, Barnyardgrass (barnyardgrass; PREEMERGENCE, Rate 50 g/ha): 3 | Plant response rating (0 to 10 scale), Barnyardgrass (barnyardgrass; PREEMERGENCE, Rate 200 g/ha): 6 | Plant response rating, Barnyardgrass (barnyardgrass; Rate 200 g/ha, POSTEMERGENCE): 7 | Plant response rating, Rape (rape; POSTEMERGENCE, Rate 50 g/ha): 8 | Plant response rating, Rape (rape; PREEMERGENCE, Rate 50 g/ha): 3 | Plant response rating (0 to 10 scale), Rape (rape; PREEMERGENCE, Rate 200 g/ha): 6 | Plant response rating, Rape (rape; Rate 200 g/ha, POSTEMERGENCE): 9 | Plant response rating, Bedstraw (bedstraw; POSTEMERGENCE, Rate 50 g/ha): 5 | Plant response rating, Bedstraw (bedstraw; PREEMERGENCE, Rate 50 g/ha): 2 | Plant response rating (0 to 10 scale), Bedstraw (bedstraw; PREEMERGENCE, Rate 200 g/ha): 7 | Plant response rating, Bedstraw (bedstraw; Rate 200 g/ha, POSTEMERGENCE): 7 | Plant response rating, Chickweed (chickweed; POSTEMERGENCE, Rate 50 g/ha): 4 | Plant response rating, Chickweed (chickweed; PREEMERGENCE, Rate 50 g/ha): 0 | Plant response rating (0 to 10 scale), Chickweed (chickweed; PREEMERGENCE, Rate 200 g/ha): 3 | Plant response rating, Chickweed (chickweed; Rate 200 g/ha, POSTEMERGENCE): 5 | Plant response rating, Nutsedge (purple nutsedge; POSTEMERGENCE, Rate 50 g/ha): 0 | Plant response rating, Nutsedge (purple nutsedge; PREEMERGENCE, Rate 50 g/ha): 0 | Plant response rating (0 to 10 scale), Nutsedge (purple nutsedge; PREEMERGENCE, Rate 200 g/ha): 0 | Plant response rating, Nutsedge (purple nutsedge; Rate 200 g/ha, POSTEMERGENCE): 0
